The source made the active and inactive calls. No cut-off for these calls is given here.
Legend:
A549 [1] = test: Antiproliferative activity against human A549 cells assessed as cell growth inhibition measured after 72 hrs by MTT assay; conditions: A549, 72 h
HepG2 [2] = test: Antiproliferative activity against human HepG2 cells assessed as cell growth inhibition measured after 72 hrs by MTT assay; conditions: HepG2, 72 h
MCF7 = test: Antiproliferative activity against human MCF7 cells assessed as cell growth inhibition measured after 72 hrs by MTT assay; conditions: MCF7, 72 h
[3] = biological target: Hepatocyte growth factor receptor (Homo sapiens, UniProt P08581); test: Inhibition of c-Met (unknown origin) by caliper mobility shift assay
Hepatocyte growth factor receptor, sequence (P08581 whole entry): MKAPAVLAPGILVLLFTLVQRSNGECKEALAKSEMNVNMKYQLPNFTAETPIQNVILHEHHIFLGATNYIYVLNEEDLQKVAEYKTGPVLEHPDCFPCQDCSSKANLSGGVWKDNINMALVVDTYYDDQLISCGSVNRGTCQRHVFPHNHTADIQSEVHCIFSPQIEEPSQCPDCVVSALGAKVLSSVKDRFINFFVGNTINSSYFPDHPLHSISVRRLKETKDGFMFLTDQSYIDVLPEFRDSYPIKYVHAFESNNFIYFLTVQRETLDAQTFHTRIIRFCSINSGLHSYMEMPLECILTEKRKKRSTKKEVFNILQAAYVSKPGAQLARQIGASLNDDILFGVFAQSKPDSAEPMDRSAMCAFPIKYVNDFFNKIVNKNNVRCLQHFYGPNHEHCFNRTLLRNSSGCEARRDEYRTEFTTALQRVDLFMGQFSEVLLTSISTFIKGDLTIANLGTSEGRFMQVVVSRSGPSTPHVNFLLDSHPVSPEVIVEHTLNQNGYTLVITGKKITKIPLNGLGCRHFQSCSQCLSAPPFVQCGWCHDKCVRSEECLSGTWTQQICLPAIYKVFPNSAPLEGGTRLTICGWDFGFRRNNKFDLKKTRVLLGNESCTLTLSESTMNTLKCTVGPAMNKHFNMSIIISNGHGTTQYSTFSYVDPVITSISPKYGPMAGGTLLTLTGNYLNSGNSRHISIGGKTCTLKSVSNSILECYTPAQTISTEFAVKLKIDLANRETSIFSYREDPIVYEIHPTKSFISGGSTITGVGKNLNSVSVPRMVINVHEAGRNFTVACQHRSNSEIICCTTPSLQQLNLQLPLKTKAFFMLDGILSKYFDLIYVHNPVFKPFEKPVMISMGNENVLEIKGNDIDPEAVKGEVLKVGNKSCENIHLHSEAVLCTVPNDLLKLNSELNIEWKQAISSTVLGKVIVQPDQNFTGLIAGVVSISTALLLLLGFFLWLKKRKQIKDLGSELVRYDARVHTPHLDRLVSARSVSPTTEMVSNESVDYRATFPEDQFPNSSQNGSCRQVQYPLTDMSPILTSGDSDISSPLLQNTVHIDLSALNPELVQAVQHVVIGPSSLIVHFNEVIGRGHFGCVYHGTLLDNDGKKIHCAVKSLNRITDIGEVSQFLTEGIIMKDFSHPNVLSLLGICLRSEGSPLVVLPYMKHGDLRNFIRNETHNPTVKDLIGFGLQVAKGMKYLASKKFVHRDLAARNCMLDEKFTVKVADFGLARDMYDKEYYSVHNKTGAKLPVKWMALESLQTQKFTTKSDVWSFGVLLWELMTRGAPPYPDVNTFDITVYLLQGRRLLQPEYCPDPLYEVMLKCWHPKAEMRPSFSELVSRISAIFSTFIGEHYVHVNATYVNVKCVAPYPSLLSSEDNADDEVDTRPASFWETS

HepG2 [4] = test: Induction of apoptosis in human HepG2 cells assessed as decomposed nucleus at 0.24 uM by acridine orange staining based fluorescence microscopy; assay type: functional, cell-based
[5] = biological target: Platelet-derived growth factor receptor beta (Homo sapiens, UniProt P09619); test: Inhibition of PDGFRbeta (unknown origin) by enzymatic assay
Platelet-derived growth factor receptor beta, sequence (P09619 whole entry): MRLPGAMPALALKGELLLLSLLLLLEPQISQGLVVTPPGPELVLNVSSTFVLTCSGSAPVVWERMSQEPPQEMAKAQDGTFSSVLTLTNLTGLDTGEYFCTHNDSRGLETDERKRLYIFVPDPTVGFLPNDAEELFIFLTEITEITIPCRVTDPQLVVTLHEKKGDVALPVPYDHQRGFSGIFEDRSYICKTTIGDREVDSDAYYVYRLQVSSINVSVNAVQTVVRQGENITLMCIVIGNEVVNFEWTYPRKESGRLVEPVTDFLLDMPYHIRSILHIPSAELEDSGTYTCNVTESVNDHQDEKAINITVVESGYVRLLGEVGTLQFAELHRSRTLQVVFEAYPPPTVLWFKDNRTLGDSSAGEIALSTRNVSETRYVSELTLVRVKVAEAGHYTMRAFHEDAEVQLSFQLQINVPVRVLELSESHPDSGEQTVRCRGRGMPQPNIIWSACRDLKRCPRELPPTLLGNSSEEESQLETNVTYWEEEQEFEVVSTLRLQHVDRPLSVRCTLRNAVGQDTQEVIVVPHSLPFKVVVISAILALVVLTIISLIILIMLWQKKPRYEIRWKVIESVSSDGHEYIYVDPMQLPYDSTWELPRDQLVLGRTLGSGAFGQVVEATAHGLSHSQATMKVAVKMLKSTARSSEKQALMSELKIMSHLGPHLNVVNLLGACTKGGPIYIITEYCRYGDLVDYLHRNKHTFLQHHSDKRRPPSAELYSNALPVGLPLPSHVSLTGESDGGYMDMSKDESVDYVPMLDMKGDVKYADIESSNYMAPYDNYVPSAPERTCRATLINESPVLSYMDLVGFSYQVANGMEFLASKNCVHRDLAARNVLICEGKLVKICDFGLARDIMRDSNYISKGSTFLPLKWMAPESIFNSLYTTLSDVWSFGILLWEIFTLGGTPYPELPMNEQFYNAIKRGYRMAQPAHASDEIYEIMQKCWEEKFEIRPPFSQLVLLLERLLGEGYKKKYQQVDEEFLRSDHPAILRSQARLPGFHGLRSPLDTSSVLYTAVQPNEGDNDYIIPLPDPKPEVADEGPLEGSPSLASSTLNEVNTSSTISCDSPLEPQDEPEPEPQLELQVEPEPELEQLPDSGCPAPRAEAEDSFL

[6] = biological target: ALK tyrosine kinase receptor (Homo sapiens, UniProt Q9UM73); test: Inhibition of ALK (unknown origin) by enzymatic assay
HepG2 [7] = test: Induction of apoptosis in human HepG2 cells assessed as dispersed nucleus at 0.24 uM by acridine orange staining based fluorescence microscopy; assay type: functional, cell-based
A549 [8] = test: Antiproliferative activity against human A549 cells assessed as cell growth inhibition measured after 72 hrs by MTT assay
HepG2 [9] = test: Induction of apoptosis in human HepG2 cells assessed as abnormal cell morphology at 0.24 uM by acridine orange staining based fluorescence microscopy; assay type: functional
[10] = biological target: Macrophage-stimulating protein receptor (Homo sapiens, UniProt Q04912); test: Inhibition of RON (unknown origin) by enzymatic assay
Macrophage-stimulating protein receptor, sequence (Q04912 25-304 limits assumed): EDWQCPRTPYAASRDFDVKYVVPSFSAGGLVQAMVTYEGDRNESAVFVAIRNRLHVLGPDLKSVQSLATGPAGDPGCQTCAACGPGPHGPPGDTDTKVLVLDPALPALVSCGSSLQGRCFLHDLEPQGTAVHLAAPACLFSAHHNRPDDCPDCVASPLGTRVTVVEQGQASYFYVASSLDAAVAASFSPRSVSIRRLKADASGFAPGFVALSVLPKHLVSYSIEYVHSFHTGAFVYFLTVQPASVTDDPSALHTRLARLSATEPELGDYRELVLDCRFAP
Macrophage-stimulating protein receptor, sequence (Q04912 310-1400 limits assumed): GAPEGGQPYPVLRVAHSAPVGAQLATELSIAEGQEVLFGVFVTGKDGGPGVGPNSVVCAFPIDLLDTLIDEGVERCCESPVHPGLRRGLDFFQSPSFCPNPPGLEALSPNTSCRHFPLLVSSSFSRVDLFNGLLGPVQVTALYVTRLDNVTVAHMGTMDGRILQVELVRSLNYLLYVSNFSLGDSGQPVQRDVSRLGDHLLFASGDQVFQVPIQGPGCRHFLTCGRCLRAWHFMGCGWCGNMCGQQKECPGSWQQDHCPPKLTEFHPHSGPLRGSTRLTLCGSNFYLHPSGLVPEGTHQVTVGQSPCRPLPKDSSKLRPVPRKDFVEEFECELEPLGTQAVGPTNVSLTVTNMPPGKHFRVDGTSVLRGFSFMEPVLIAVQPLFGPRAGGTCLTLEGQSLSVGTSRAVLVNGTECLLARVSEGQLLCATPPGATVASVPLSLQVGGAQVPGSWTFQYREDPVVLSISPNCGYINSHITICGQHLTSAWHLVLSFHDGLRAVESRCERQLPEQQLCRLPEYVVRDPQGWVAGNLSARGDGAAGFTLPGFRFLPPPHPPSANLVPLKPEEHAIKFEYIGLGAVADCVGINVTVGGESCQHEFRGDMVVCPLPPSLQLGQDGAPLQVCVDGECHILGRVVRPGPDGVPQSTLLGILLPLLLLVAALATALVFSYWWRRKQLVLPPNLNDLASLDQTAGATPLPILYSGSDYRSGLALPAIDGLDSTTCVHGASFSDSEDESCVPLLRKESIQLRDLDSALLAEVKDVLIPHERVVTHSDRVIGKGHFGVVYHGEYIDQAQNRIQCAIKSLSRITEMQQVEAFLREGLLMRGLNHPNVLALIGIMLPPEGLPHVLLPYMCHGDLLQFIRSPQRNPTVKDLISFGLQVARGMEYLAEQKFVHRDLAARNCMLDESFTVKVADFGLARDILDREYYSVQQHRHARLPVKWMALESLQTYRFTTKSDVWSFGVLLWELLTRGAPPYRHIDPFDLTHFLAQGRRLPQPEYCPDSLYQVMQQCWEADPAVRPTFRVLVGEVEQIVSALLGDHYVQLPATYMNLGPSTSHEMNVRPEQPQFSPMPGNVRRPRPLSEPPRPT

[11] = biological target: Mast/stem cell growth factor receptor Kit (Homo sapiens, UniProt P10721); test: Inhibition of c-Kit (unknown origin) by enzymatic assay
Mast/stem cell growth factor receptor Kit, sequence (P10721 whole entry): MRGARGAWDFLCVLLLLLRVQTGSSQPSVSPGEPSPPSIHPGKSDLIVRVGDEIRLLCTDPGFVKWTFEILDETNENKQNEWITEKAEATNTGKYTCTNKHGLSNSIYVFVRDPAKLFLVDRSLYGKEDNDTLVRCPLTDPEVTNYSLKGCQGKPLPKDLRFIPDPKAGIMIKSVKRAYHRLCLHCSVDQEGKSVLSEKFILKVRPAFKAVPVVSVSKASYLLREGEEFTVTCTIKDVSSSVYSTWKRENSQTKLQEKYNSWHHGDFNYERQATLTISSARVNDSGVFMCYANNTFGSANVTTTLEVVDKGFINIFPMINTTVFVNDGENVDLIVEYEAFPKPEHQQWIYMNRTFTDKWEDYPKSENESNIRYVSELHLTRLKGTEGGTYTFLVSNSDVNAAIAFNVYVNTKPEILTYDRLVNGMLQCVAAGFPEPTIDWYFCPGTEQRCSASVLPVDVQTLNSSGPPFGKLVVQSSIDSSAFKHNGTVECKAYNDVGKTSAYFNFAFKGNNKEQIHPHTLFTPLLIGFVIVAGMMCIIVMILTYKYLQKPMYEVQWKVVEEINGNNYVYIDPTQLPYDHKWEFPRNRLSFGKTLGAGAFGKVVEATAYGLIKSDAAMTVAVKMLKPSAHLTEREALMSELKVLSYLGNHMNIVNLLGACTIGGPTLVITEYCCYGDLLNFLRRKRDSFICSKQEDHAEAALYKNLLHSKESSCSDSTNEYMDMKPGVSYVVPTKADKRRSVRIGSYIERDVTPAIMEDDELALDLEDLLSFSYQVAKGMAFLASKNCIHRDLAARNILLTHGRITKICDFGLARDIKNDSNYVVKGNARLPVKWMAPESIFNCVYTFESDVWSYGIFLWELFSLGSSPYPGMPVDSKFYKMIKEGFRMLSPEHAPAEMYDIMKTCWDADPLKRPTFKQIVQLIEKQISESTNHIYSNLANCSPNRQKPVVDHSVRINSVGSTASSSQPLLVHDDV

HepG2 [12] = test: Induction of apoptosis in human HepG2 cells assessed as concentrated chromatin at 0.24 uM by acridine orange staining based fluorescence microscopy; assay type: functional, cell-based
[13] = biological target: Vascular endothelial growth factor receptor 2 (Homo sapiens, UniProt P35968); test: Inhibition of VEGFR2 (unknown origin) by enzymatic assay
HepG2 [14] = test: Induction of apoptosis in human HepG2 cells assessed as abnormal cell morphology at 0.24 uM by inverted microscopy microscopy; assay type: functional, cell-based

| Compound | IC50 (A549 [1]) | IC50 (HepG2 [2]) | IC50 (MCF7) | other results |
| --- | --- | --- | --- | --- |
| Cn1ccc2c(Oc3ccc(NC(=O)c4cn(-c5ccc(F)cc5)c5ccccc5c4=O)cc3F)ccnc21 | 1460 nM | 2010 nM |  |  |
| O=C(Nc1ccc(Oc2ccnc3[nH]ccc23)cc1)c1cn(-c2ccc(Br)cc2F)c2ccccc2c1=O | 1330 nM | 790 nM |  |  |
| O=C(Nc1ccc(Oc2ccnc3[nH]ccc23)c(F)c1)c1cn(-c2ccc(C(F)(F)F)cc2Cl)c2ccccc2c1=O | 1620 nM | 1840 nM | 1120 nM |  |
| Cn1ccc2c(Oc3ccc(NC(=O)c4cn(-c5ccc(C(F)(F)F)cc5Cl)c5ccccc5c4=O)cc3F)ccnc21 | 2050 nM |  | 190 nM |  |
| O=C(Nc1ccc(Oc2ccnc3[nH]ccc23)c(F)c1)c1cn(-c2ccc(Br)cc2)c2ccccc2c1=O | 950 nM | 710 nM | 650 nM |  |
| COc1ccc(-n2cc(C(=O)Nc3ccc(Oc4ccnc5[nH]ccc45)cc3)c(=O)c3ccccc32)cc1 | 4980 nM | 5950 nM | 4650 nM |  |
| O=C(Nc1ccc(Oc2ccnc3[nH]ccc23)c(F)c1)c1cn(-c2ccc(Br)cc2F)c2ccccc2c1=O | 1150 nM | 2200 nM | 1390 nM |  |
| O=C(Nc1ccc(Oc2ccnc3[nH]ccc23)cc1)c1cn(-c2ccccc2)c2ccccc2c1=O | 1030 nM | 2250 nM | 3560 nM |  |
| COc1ccc(-n2cc(C(=O)Nc3ccc(Oc4ccnc5[nH]ccc45)c(F)c3)c(=O)c3ccccc32)cc1 | 4150 nM | 6530 nM | 6620 nM |  |
| Cn1ccc2c(Oc3ccc(NC(=O)c4cn(-c5ccc(Br)cc5F)c5ccccc5c4=O)cc3F)ccnc21 | 1520 nM | 2510 nM | 420 nM |  |
| O=C(Nc1ccc(Oc2ccnc3[nH]ccc23)c(F)c1)c1cn(-c2ccc(F)c(Cl)c2)c2ccccc2c1=O | 2150 nM | 3390 nM |  |  |
| Cn1ccc2c(Oc3ccc(NC(=O)c4cn(-c5ccc(Br)cc5)c5ccccc5c4=O)cc3F)ccnc21 | 1390 nM | 1260 nM | 1830 nM |  |
| Cn1ccc2c(Oc3ccc(NC(=O)c4cn(-c5ccc(F)c(Cl)c5)c5ccccc5c4=O)cc3F)ccnc21 | 1210 nM |  |  |  |
| Cn1ccc2c(Oc3ccc(NC(=O)c4cn(-c5ccccc5)c5ccccc5c4=O)cc3F)ccnc21 | 1720 nM | 2170 nM | 2790 nM |  |
| O=C(Nc1ccc(Oc2ccnc3[nH]ccc23)cc1)c1cn(-c2ccc(F)c(Cl)c2)c2ccccc2c1=O | 4810 nM | 1120 nM | 1510 nM |  |
| COc1ccc(-n2cc(C(=O)Nc3ccc(Oc4ccnc5c4ccn5C)c(F)c3)c(=O)c3ccccc32)cc1 | 3210 nM | 3750 nM | 6720 nM |  |
| O=C(Nc1ccc(Oc2ccnc3[nH]ccc23)cc1)c1cn(-c2ccc(C(F)(F)F)cc2Cl)c2ccccc2c1=O | 2350 nM |  | 3570 nM |  |

These reach a lower IC50 (A549 [1]). Values come first.

| IC50 (A549 [1]) | IC50 (HepG2 [2]) | IC50 (MCF7) | Compound | other results |
| --- | --- | --- | --- | --- |
| 650 nM | 250 nM | 1590 nM | O=C(Nc1ccc(Oc2ccnc3[nH]ccc23)cc1)c1cn(-c2ccc(Cl)cc2)c2ccccc2c1=O |  |
| 450 nM | 220 nM | 610 nM | O=C(Nc1ccc(Oc2ccnc3[nH]ccc23)cc1)c1cn(-c2ccc(Br)cc2)c2ccccc2c1=O | IC50 [3]: 10 nM |
| 290 nM | 270 nM | 520 nM | O=C(Nc1ccc(Oc2ccnc3[nH]ccc23)c(F)c1)c1cn(-c2ccc(F)cc2)c2ccccc2c1=O | Activity (HepG2 [4]): Active; IC50 [5]: > 10000 nM; IC50 [6]: > 10000 nM; Activity (HepG2 [7]): Active; inhibition (A549 [8]): Dose-dependent effect; Activity (HepG2 [9]): Active; IC50 [10]: > 10000 nM; IC50 [11]: 1310 nM; Activity (HepG2 [12]): Active; IC50 [13]: > 10000 nM; Activity (HepG2 [14]): Active |
| 250 nM | 290 nM | 2120 nM | Cn1ccc2c(Oc3ccc(NC(=O)c4cn(-c5ccc(Cl)cc5)c5ccccc5c4=O)cc3F)ccnc21 | IC50 [3]: 87 nM |
| 390 nM | 450 nM | 720 nM | O=C(Nc1ccc(Oc2ccnc3[nH]ccc23)cc1)c1cn(-c2ccc(F)cc2)c2ccccc2c1=O |  |
| 320 nM | 380 nM |  | O=C(Nc1ccc(Oc2ccnc3[nH]ccc23)c(F)c1)c1cn(-c2ccc(Cl)cc2)c2ccccc2c1=O | IC50 [3]: 41 nM |
| 420 nM | 760 nM | 430 nM | O=C(Nc1ccc(Oc2ccnc3[nH]ccc23)c(F)c1)c1cn(-c2ccccc2)c2ccccc2c1=O |  |
| 480 nM | 350 nM | 730 nM | COc1cc2c(Oc3ccc(NC(=O)C4(C(=O)Nc5ccc(F)cc5)CC4)cc3F)ccnc2cc1OCCCN1CCOCC1 [FORETINIB] |  |

Reference: ChEMBL document CHEMBL4602641, “Discovery of novel pyrrolo[2,3-b]pyridine derivatives bearing 4-oxoquinoline moiety as potential antitumor inhibitor” (Bioorg Med Chem Lett, 2020)
